In publication PMC8232266, “Lanolin-Based Synthetic Membranes for Transdermal Permeation and Penetration Drug Delivery Assays” (Membranes, 2021):
Entries after “also recorded” stand apart in the source; their conditions may differ. Where two headings read alike, the source gives them in different places. Marks after values point to notes of the source that are not given here.

Experiments:
[1] = Infinite-dose kinetic permeation assay, vertical Franz diffusion cells, 5% WEL lanolin membrane; format: in vitro ADME; conditions: DS 3% / LIDO 2% in PG; for J (flux): Ord 0 model
Protocol: (§1) For the preparation of the membranes, the procedure described by Pullmannová, et al. was followed. […] Next, 300 µL of the lipid solution was spread onto the pre-weighed NP membranes (≈15 mg lanolin) in a three-step process. The solvent was then evaporated under a stream of N2. The lipid membranes prepared were vacuum-dried over […] in a desiccator and were stored in a fridge at 5 °C for 24 h. Prior to use, the lanolin-based membranes were then heated to 75 °C, equilibrated for 10 min, and then cooled down slowly (~3 h) to 32 °C. The last part of the cooling-heating cycle was incubation for 24 h at 32 °C. Using a skin pHmeter (Sebumeter pH 900, Courage + Khazaka, Cologne, Germany), the pH of the membranes was determined.
(§2) Lastly, the entire system was clamped shut.

[2] = Finite-dose penetration test, Franz diffusion cells, Nuclepore-SEL membrane; format: in vitro ADME; conditions: finite dose 20 µL, 24 h, Figure 1
[3] = Infinite-dose kinetic permeation assay, vertical Franz diffusion cells, Nuclepore membrane; format: in vitro ADME; conditions: NP, DS 3% / LIDO 2% in PG; for J (flux): Higuchi model
Excerpt: as §2

[4] = Infinite-dose kinetic permeation assay, vertical Franz diffusion cells, 5% SEL lanolin membrane; format: in vitro ADME
Protocol: as §1, §2

[5] = infinite dose

Kinetics of Release (best-fit model) ([4]; DS 3% / LIDO 2% in PG) | J (flux) ([4]; Ord 0 model, DS 3% in PG) | Kinetics of Release (best-fit model) ([5]; SKIN, DS 3% / LIDO 2% in PG) | J (flux) ([5]; SKIN, Ord 0 model, DS 3% / LIDO 2% in PG) | permeability (percentage permeated through the skin) ([5]; pig skin, at 30 h) | SMILES | Kinetics of Release (best-fit model) ([1]; listed as DS) | J (flux) [1] | permeation through Nuclepore-SEL membrane compared with skin [2] | Kinetics of Release (best-fit model) [3] | J (flux) [3] | J (flux) ([4]; Higuchi model, LIDO 2% in PG)
Ord 0 | 30.40 * µg/cm^2/h | Ord 0 | 3.94 µg/cm^2/h | 0.83 ± 0.42% | O=C(O)Cc1ccccc1Nc1c(Cl)cccc1Cl [Diclofenac Sodium, Diclofenac sodium] | zero-order kinetics; also recorded: Ord 0 | 6.18 µg/cm^2/h | insignificant difference compared with the skin | Higuchi | 2307.12 * µg/cm^2/h^½ | –
– | – | – | – | – | CCN(CC)CC(=O)Nc1c(C)cccc1C [Lidocaine, lidocaine] | – | 4.85 µg/cm^2/h | – | Higuchi | 1360.27 * µg/cm^2/h^½ | 343.05 * µg/cm^2/h^½
